How the values were obtained:
[1] = system: ARE-luciferase reporter (human NQO1-ARE) in IMR-32 cells; assay: ARE-luc reporter assay in IMR-32 cells; format: cell-based; conditions: relative to Compounds 1 and 2; assay not specified
Excerpt: The ARE-luciferase reporter construct (ARE-luc) contains the core sequence of human NQO1-ARE1. The mock plasmid (pcDNA3-mRFP) was purchased from Addgene (plasmid 13032). The following plasmids were reported by Zhang et a/.2003 [Zhang, D. D., and Hannink, M. (2003) Distinct cysteine residues in Keap1 are required for Keap1-dependent ubiquitination of Nrf2 and for stabilization of Nrf2 by chemopreventive agents and oxidative stress. Mol. Cell. Biol. 23, 8137-8151]. The Keap1-CBD plasmid carries the entire open reading frame (ORF) of human Keap1 fused to the chitin binding domain (CBD) of the Bacillus circulans chitinase A1 gene upstream of the Keap1 stop codon. Oligonucleotide-directed mutagenesis was used to generate the Keap1-C151S-CBD and Keap1-C288S-CBD plasmids. The HA-Cul3 plasmid was constructed by fusing an N-terminal hemagglutinin (HA) tag with a cDNA sequence coding for amino acids 1-380 of human Cul3 gene. The Gal4-Neh2 expression vector contains the codons for the first 97 amino acids (Neh2 domain) of human Nrf2 fused to the ORF of the Gal4 DNA-binding domain
An ARE-luciferase reporter plasmid and CMV-GFP plasmid (to monitor transfection efficiency) were co-transfected into a human androgen-sensitive prostate cancer cell line, LNCaP (6×10^4 cells/well), and a human neuroblastoma cell line, IMR-32 (3×10^4 cells/well), using Fugene® HD (Roche Diagnostics) in 96-well format. […] J Biol Chem. 2002; 277:388-394; Lee J M, Hanson J M, Chu W A, Johnson J A. Phosphatidylinositol 3-kinase, not extracellular signal-regulated kinase, regulates activation of the antioxidant-responsive element in IMR-32 human neuroblastoma cells. […] After 24 hours of incubation, cells were treated with extracts from Cymopolia barbata, a negative control (DMSO, 1%, v/v), and a positive control ([…] sulforaphane, SF, and tert-butylhydroquinone, tBHQ, respectively.) 24 hours post-treatment, luciferase activity was detected using BriteLite detection reagent (PerkinElmer). […]

[2] = format: physicochemical
Method: Silver oxide (14.2 mg) was added to a solution of cymopol 1 (6.6 mg) in dichloromethane (2.5 mL). The reaction mixture was stirred at room temperature for 15 min before being evaporated in vacuum. The crude product was purified by preparative TLC plate (ethyl acetate/hexane 1:4, v/v, Rf 0.8) to give 4.92 mg product 5 (75% yield).

[3] = target: T1, full-length human recombinant KEAP1 (Homo sapiens, UniProt Q14145); assay: LC-MS/MS mapping of cysteine adducts on recombinant KEAP1; format: binding; conditions: excess CymQ
T1 construct: cysteine residues of full-length human recombinant KEAP1 in vitro
T1 sequence (Q14145 whole entry): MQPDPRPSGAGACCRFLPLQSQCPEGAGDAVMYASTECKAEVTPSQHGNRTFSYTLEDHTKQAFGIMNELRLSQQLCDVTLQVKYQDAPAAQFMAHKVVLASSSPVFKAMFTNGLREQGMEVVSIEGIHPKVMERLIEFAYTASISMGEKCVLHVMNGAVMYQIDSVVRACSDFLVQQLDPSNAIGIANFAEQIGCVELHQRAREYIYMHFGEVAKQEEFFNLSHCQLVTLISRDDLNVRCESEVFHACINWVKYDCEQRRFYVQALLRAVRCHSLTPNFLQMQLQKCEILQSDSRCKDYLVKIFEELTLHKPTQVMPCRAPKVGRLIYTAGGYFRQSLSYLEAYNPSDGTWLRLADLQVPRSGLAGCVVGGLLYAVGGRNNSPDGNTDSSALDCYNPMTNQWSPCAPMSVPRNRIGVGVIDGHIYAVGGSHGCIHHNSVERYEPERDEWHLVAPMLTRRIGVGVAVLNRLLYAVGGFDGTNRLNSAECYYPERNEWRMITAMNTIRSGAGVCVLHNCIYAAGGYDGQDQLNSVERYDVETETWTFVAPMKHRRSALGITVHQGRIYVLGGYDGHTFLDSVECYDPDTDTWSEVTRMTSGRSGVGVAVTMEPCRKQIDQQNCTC
Excerpt: To obtain a global picture of cysteine modification of Keap1, rather than focusing on known functionally relevant residues, a proteomics approach was utilized, monitoring the effect of activated cymopol (CymQ) on cysteine residues of full-length human recombinant KEAP1 in vitro, similarly as described [Wang R, et al. (2013) In vitro and in vivo characterization of a tunable dual-reactivity probe of the Nrf2-ARE pathway. ACS Chem Biol 8(8):1764-1774; Hur W, et al. (2010) A small-molecule inducer of the antioxidant response element. Chem Biol 17(5):537-547]. Briefly, KEAP1 was treated with excess CymQ and adducts were mapped by LC-MS/MS in three separate experiments (five different conditions) using DTT, chymotrypsin and trypsin as the variables for different sample preparations, in order to capture more potential adducts. The most abundant modification observed was a mass increase of 242, resulting from an addition-elimination reaction of 5 (FIGS. 54 and 55) with loss of bromine, which is unique to CymQ compared with tBQ. Additional representative spectra for different types of tags can be found in SI Appendix, Fig. S4. […] Most ARE activators belong to class 1 of this cysteine code where Cys151 is readily modified, although contradictory results are shown for these compounds based on the experimental conditions used. […]

[4] = system: NQO1; assay: qPCR of NQO1 transcript in IMR-32 cells; format: cell-based, human; conditions: 12 h
Method: The cells were seeded in 6-well format (see immunoblot) and treated with a solvent control (DMSO, 1%, v/v), isolated compounds, or extracts for 12 h. The RNeasy Mini Kit (Qiagen) was used to collect total RNA from cells, while for mouse tissue, TRIzol reagent (Invitrogen) was used. In each case, total RNAs (2 μg) were reverse-transcribed into cDNAs, which were used as templates for TaqMan gene expression assay (Applied Biosystems) and detected using the 7300 Real-Time PCR System (Applied Biosystems). Each qPCR sample was tested in triplicate as a 25 μL total reaction volume (12.5 μL of Taqman 2× universal master mix, 1.25 μL of a 20× TaqMan gene expression assay probe, 1 μL of the above cDNA, and 10.25 μL of RNase-free sterile water). The qPCR method was designed as following: 50° C. for 2 min, 95° C. for 10 min, and 40 cycles of 95° C. for 15 s and 60° C. for 1 min. Endogenous controls used included GAPDH for IMR-32 cells and β-actin to normalize for RAW264.7 cells and mouse tissues.

| Compound | anti-oxidant efficacy [1] | stability in air [2] | alkylation of highly reactive cysteines including Cys151 [3] | number of KEAP1 cysteines modified [3] | Nqo1 transcript induction by quinone versus hydroquinone counterpart [4] |
| --- | --- | --- | --- | --- | --- |
| C=C1CCC(Br)C(C)(C)C1Cc1cc(OC)c(Br)cc1O (stereo not drawn) [Compound 4, 5-bromo-2-((3-bromo-2,2-dimethyl-6-methylenecyclohexyl)methyl)-4-methoxyphenol] | reduced anti-oxidant efficacy |  |  |  |  |
| CC12CCC(Br)C(C)(C)C1Cc1cc(O)c(Br)cc1O2 (stereo not drawn) [Compound 3, 2,6-dibromo-1,1,4a-trimethyl-2,3,4,4a,9,9a-hexahydro-1H-xanthen-7-ol] | reduced anti-oxidant efficacy |  |  |  |  |
| cymopol quinone [Compound 5] |  | not stable in air | failed to alkylate | 10 | retained the bioactivity |
